Entries after “also recorded” stand apart in the source; their conditions may differ.

Data set [1] concerns Wistar Ratte. The data set can be described thus: Mechanical allodynia (von Frey filament) after chronic constriction injury (CCI) of the left sciatic nerve, rat. The class given is in vivo. To be noted: rats, day 10-12 after CCI. Here is the method: (§1) Zum Beweis der Effektivität der Bitopertin-Applikation zur Behandlung neuropathischer Schmerzen wurde eine operative Ligatur des linken N. ischiadicus (Chronic Constriction Injury; CCI) der Wistar Ratte sowie C57BL/6-Maus induziert. Am Tag 10-12 nach CCI erhielten 2 Gruppen der Ratten randomisiert und verblindet eine einmalige orale Dosierungen von Bitopertin (0,3; 1 mg/kg), während die Kontrollgruppen Vehikel erhielten. Mechanische Allodynie wurde mittels eines halbautomatischen Frey Filaments (Ugo Basile) vor und 10-12 Tage nach CCI, sowie 1, 2, 4, 8 und 24 h nach Applikation von Bitopertin bzw. Vehikel überprüft. Zusätzlich wurde die Wirkung von Bitopertin 10 Tage nach CCI in Mäusen bei kontinuierlicher Langzeitapplikation mittels subkutan implantierter, osmotischer Mini-Infusionspumpen (2 mg/kg/Tag) über 27 Tage untersucht. Neuromotorische Wirkungen von Bitopertin in Mäusen wurden im Open-Field-Test 1 h nach Injektion bzw. bei kontinuierlicher Applikation nach 12 Tagen analysiert. Statistik: Alle Daten sind dargestellt als Mittelwerte ± Standardfehler; ANOVA und Bonferroni post hoc Test; Signifikanzniveau p<0,05.
In Figur 3 ist der Effekt des GlyT1-Inhibitors Bitopertin auf die mechanische Allodynie bei Nagern mit Neuropathie nach CCI dargestellt. Abbildung (A) zeigt den Effekt des GlyT1-Inhibitors Bitopertin auf die einmalige orale Applikation bei Ratten 0,3 mg/kg; n=9-11. […]

Data set [2] relates to Mäusen. As to conditions: in vivo. Here is the method:
as §1

In data set [3] the test system is C57BL/6-Maus. The data set can be described thus: Mechanical allodynia (von Frey filament, withdrawal threshold) after chronic constriction injury (CCI), mouse. The class given is in vivo.

Take `C[C@H](Oc1ccc(S(C)(=O)=O)cc1C(=O)N1CCN(c2ncc(C(F)(F)F)cc2F)CC1)C(F)(F)F` [Bitopertin]: the “durch CCI induzierte mechanische Allodynie” value in data set [1] (single oral dose 0,3 mg/kg, effect two and four hours after administration, Figur 3 A) is listed as “Reduktion der durch CCI induzierten mechanischen Allodynie; also recorded: signifikanten Verminderung von mechanischer Allodynie”; in data set [1] (single oral dose 1 mg/kg, compared with 0,3 mg/kg, Figur 3 B), “vergleichbar ausprägten Effekten; also recorded: signifikanten Verminderung von mechanischer Allodynie”. The “unerwünschte neuromotorische Wirkungen” value in data set [2] is reported as “nicht zu unerwünschten neuromotorischen Wirkungen”. Besides, in data set [2] (2 mg/kg), the “Aktivität (Open-field Test)” value is “keine Veränderungen der Aktivität”. Moreover, the “Wegstrecken und Aufenthaltsdauern (Open-Field-Test)” value in data set [2] (sc, 2 mg/kg) is on record as “keine Unterschiede in Wegstrecken und Aufenthaltsdauern”. Also, the “Schmerzempfindlichkeit der neuropathischen Extremität (mechanische Allodynie)” value in data set [3] (mice after CCI, continuous subcutaneous administration 2 mg/kg/Tag by osmotic mini-pump over 27 days, effect from 7 days after start until end of therapy, Figur 3 C, 2 mg/kg) is given as “verminderten Schmerzempfindlichkeit der neuropathischen Extremität; also recorded: signifikanten Verminderung von mechanischer Allodynie”. Besides, the “Rückzugsschwellenwerte in Antwort auf eine mechanische Stimulation der neuropathischen Extremität” value in data set [3] (mice, intraperitoneal 2 mg/kg versus Kochsalzlösung 0,9%, Figur 1) is given as “deutliche Anhebung der gemessenen Rückzugsschwellenwerte”.
